The record followed here is patent US20100221736A1, “METHOD FOR PREDICTING SUSCEPTIBILITY TO A MENTAL DISORDER” (priority 2007, published 2010).

Holding throughout (assay type): cell-based, human
Test [1] has as its system glutamate cysteine ligase (GCL). Put plainly: GCL activity in cultured skin fibroblasts after t-BHQ treatment. To be noted: for increase of GCL activity after t-BHQ treatment (factor): t-BHQ vs baseline. Here is the method: (§1) Human fibroblast cultures were established from skin biopsies as described in Tosic et al.[8] Cells were grown with DMEM medium (0.5 l medium completed with 10 ml Ultroser-G serum, 5 ml Penicillin/Streptomycin, 5 ml sodium pyruvate (100 mM)) at 37° C. in a humidified atmosphere containing 5% CO2/95% air. Human fibroblasts near confluence after five passages were treated for 18 h with 50 μM t-BHQ in 0.05% DMSO (t-BHQ condition) or 0.05% DMSO alone (baseline condition). Cells were washed once with phosphate-buffer saline (PBS), trypsinized and pelleted. The pellet was washed once, taken up into PBS and frozen. GSH content and GCL activity was determined in protein extracts from fibroblasts cultures, with a fluorescence-based microtiter plate assay according to White and colleagues [White et al, 2003]. GCL activity was determined as the difference between GSH synthesis in unblocked and GSH synthesis in BSO treated wells per min and per mg protein. Protein concentration has been determined by BCA protein assay. In addition, GSH contents under untreated conditions were also routinely measured in all participants that had spent skin fibroblasts (33 controls and 39 patients) by a colorimetric GSH assay kit (Calbiochem, San Diego, USA).

Test [2] relates to skin fibroblasts. Put plainly: GSH content in cultured skin fibroblasts after t-BHQ treatment. To be noted: for GSH content: t-BHQ treated (50 μM, 18 h). Here is the method: as §1
Test [3] relates to GCLM. Nature of the test: GCLM protein expression by Western Blot in skin fibroblasts after t-BHQ treatment. To be noted: for increase of GCLM protein expression induced by t-BHQ treatment: t-BHQ vs baseline; for GCLM protein expression: t-BHQ treated (50 μM, 18 h). The procedure:
(§2) Human fibroblast cultures were established from skin biopsies as described in Tosic et al.[8] Cells were grown with DMEM medium (0.5 l medium completed with 10 ml Ultroser-G serum, 5 ml Penicillin/Streptomycin, 5 ml sodium pyruvate (100 mM)) at 37° C. in a humidified atmosphere containing 5% CO2/95% air. Human fibroblasts near confluence after five passages were treated for 18 h with 50 μM t-BHQ in 0.05% DMSO (t-BHQ condition) or 0.05% DMSO alone (baseline condition). Cell lysis was performed on ice. Cells were washed with PBS and scraped with lysis buffer (2.37 ml scraping buffer (Tris-HCl 50 mM, pH 7.2; NaCl 150 mM; NaF 10 mM; EDTA 2 mM; EGTA 2 mM; Triton X100 1%); 100 μl Complete (1 tablet/2 ml H2O); 25 μl PMSF 100 mM; 2.5 μl DTT 1 mM). Lysates were homogenized 10 times with a 25-gauge needle, and cellular debris were cleared by centrifugation (20,000 g, 14 min, 4° C.). Protein concentration was determined by BCA protein assay. Equal amounts of protein (50 μg) were dissolved in 5× Laemmli sample buffer, separated by 12% SDS-PAGE, and electro-transferred to a PVDF membrane. Membranes were blocked (BSA 1%/milk powder 3%) overnight at 4° C. Following incubation with primary and secondary antibodies, protein was visualized by using the ECL detection system and protein abundance was quantified by densitometry analysis (Multi Genius, Bio Imaging System, Syngene). A fibroblast protein pool from 5 different individuals was used as an external control in all experiments. The results were normalized to a -Tubulin, and reported relative to the specific protein levels measured in the protein pool.

The test system of test [4] is GCLC. Put plainly: GCLC protein expression by Western Blot in skin fibroblasts after t-BHQ treatment. To be noted: for increase of GCLC protein expression by t-BHQ treatment (factor): t-BHQ vs baseline. The procedure:
as §2
(In general: A western blot detects proteins with antibodies after separation by electrophoresis.)

The mark [5] stands for this setting: t-BHQ treatment, subjects with GCLC GAG TNR genotypes 7/7 & 7/9.
[6] abbreviates: t-BHQ treatment, subjects with genotypes 7/8, 8/8, 8/9 & 9/9.
Where [7] appears, read: fibroblasts of control subjects.
The mark [8] stands for this setting: fibroblasts of schizophrenia patients.

As to `CC(C)(C)c1cc(O)ccc1O` [t-BHQ, tert-butylhydroquinone], the “increase of GCL activity after t-BHQ treatment (factor)” value was determined as 3.45 in test [1] (controls) and 2.95 in test [1] (patients). For the same compound, the GCL activity in test [1] (t-BHQ treated (50 μM, 18 h), fibroblasts of control subjects, average and standard deviation) was 0.847 ± 0.26 nmol GSH/min/mg protein; in test [1] (t-BHQ treated (50 μM, 18 h), fibroblasts of schizophrenia patients, average and standard deviation) it was 0.627 ± 0.16 nmol GSH/min/mg protein; in test [1] (setting [5]) it was 0.784±0.246; in test [1] (setting [6]) it was 0.584±0.141. Also, the GSH content is 144.9 ± 21.5 nmol GSH/mg protein in test [2] (setting [7]) and 136.3 ± 19.1 nmol GSH/mg protein in test [2] (setting [8]). Besides, the “increase of GSH content after t-BHQ treatment (factor)” value in test [2] (very similar in patients and controls, t-BHQ vs baseline) came to 2.53. Further, the results for the “increase of GCLM protein expression induced by t-BHQ treatment” value in test [3] (control subjects) and in test [3] (patients) were 73% and 74%, respectively. Also, the GCLM protein expression in test [3] (setting [7]) is recorded as 108.0 ± 24.0 α-Tubulin corrected arbitrary units; in test [3] (setting [8]) it was 107.6 ± 24.1 α-Tubulin corrected arbitrary units. In addition, the “increase of GCLC protein expression by t-BHQ treatment (factor)” value in test [4] (controls) is 1.44; in test [4] (patients), 1.32. The GCLC protein expression was 64.1 ± 17.5 α-Tubulin corrected arbitrary units in test [4] (t-BHQ treated (50 μM, 18 h), fibroblasts of control subjects); 45.4 ± 15.8 α-Tubulin corrected arbitrary units in test [4] (t-BHQ treated (50 μM, 18 h), fibroblasts of schizophrenia patients); 58.9±19.0 in test [4] (setting [5]); 45.6±13.3 in test [4] (setting [6]).
